From patent US20250195483A1, “SPIRO PIPERIDINE DERIVATIVES AS INHIBITORS OF APOL1 AND METHODS OF USING SAME” (Vertex Pharmaceuticals Incorporated, priority 2022, published 2025) come the findings set out here.

Molecules are shown by their SMILES. pIC50: −log10 of the molar value.

The test deals with T1, APOL1 (Homo sapiens, UniProt O14791).
T1 sequence (O14791 1-398): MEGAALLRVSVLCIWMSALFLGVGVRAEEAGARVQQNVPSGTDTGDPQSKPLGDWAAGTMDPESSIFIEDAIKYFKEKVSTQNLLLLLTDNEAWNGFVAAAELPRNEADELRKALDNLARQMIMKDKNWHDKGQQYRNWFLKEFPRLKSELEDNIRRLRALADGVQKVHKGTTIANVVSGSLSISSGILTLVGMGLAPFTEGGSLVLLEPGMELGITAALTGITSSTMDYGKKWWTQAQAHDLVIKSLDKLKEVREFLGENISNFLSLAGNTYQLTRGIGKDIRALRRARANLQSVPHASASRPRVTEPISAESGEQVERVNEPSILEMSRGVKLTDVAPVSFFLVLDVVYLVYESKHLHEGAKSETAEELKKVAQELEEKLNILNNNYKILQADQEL
As to the kind of experiment: MultiTox-Fluor Multiplex Cytotoxicity Assay, tet-inducible APOL1 T-REx-HEK293 cells (G0, G1 or G2 clone not specified for Table 20). The conditions noted are these: tet-induced, 24 hours with compound, ratio of dead to live cells, read-out: IP50 (i.e., IC50 for cell proliferation). In kind it is cell-based. On the procedure: Human embryonic kidney (HEK293) cell lines containing a tet-inducible expression system (T-REx™; Invitrogen, Carlsbad, CA) and Adeno-associated virus site 1 pAAVS1-Puro-APOL1 G0 or pAAVS1-Puro-APOL1 G1 or pAAVS1-Puro-APOL1 G2 Clones G0 DC2.13, G1 DC3.25, and G2 DC4.44 were grown in a T-225 flask at ˜90% confluency in cell growth media (DMEM, 10% Tet-free FBS, 2 mM L-glutamine, 100 Units/mL penicillin-streptomycin, 5 μg/mL blasticidin S HCl, 1 μg/mL puromycin dihydrochloride). Cells were washed with DPBS and then trypsinized to dissociate from the flask. Media was used to quench the trypsin, cells were then pelleted at 200 g and resuspended in fresh cell assay media (DMEM, 2% Tet-free FBS, 2 mM L-glutamine, 100 Units/mL penicillin-streptomycin). Cells were counted and diluted to 1.17×10^6 cells/mL. 20 μL of cells (23,400/well) were dispensed in every well of a 384-well Poly-D-Lysine coated plate using the Multidrop dispenser. The plates were then incubated at room temperature for one hour.
Tetracycline is needed to induce APOL1 expression. 1 mg/mL tet stock in water was diluted to 250 ng/mL (5×) in cell assay media. 60 μL of cell assay media (no tet control) was dispensed in columns 1 and 24, and 60 μL of 5× tet in 384-PP-round bottom plate was dispensed in columns 2 to 23 with the Multidrop dispenser.
Assay ready plates from the Global Compound Archive were ordered using template 384_APOL1Cell_DR10n2_50 uM_v3. Compounds were dispensed at 200 nL in DMSO. The final top concentration was 10 μM with a 10 point 3-fold dilution in duplicate in the MultiTox assay.
20 μL was transferred from the 5× tet plate to the ARP and mixed, then 5 μL of 5× tet and the compounds were transferred to the cell plate and mixed using the Bravo. The cell plate was placed in the humidified 37° C. 5% CO2 incubator for 24 hours.
The MultiTox-Fluor Multiplex Cytotoxicity Assay was performed in accordance with the manufacturer's protocol. After cells were incubated with tet and compound for 24 hours, 25 μL of 1× MultiTox reagent was added to each well using the Multidrop dispenser; the plates were placed on a plate shaker (600 rpm) for 2 minutes, then centrifuged briefly and placed back in the 37° C. incubator for 30 minutes. The cell viability (excitation: 400 nm, emission: 486 nm) and cytotoxicity (excitation: 485 nm, emission: 535 nm) were read using the EnVision plate reader. A ratio of dead (cytotoxicity) to live (viability) cells was reported. Data was exported and analyzed in Genedata. Data was normalized using percent of control, no tet (100% viability), and 50 ng/mL tet treated (0% viability), and fit using Smart Fit settings in Genedata.
As to `CN1C(=O)C2(CCN(Cc3cnn(CCS(C)(=O)=O)c3)CC2)c2cc(Cl)ccc21` [Compound 37, 5-chloro-1-methyl-1′-[[1-(2-methylsulfonylethyl)pyrazol-4-yl]methyl]spiro[indoline-3,4′-piperidine]-2-one], the pIC50 was 6.30 to 7.30. To `CN1C(=O)C2(CCN(Cc3cn[nH]c3)CC2)c2cc(Cl)ccc21` [Compound 38] belongs 6.30 to 7.30; to `CN1C(=O)C2(CCN(Cc3cnn(C)c3)CC2)c2cc(Cl)ccc21` [Compound 39], 6.30 to 7.30. To `CN1C(=O)C2(CCN(Cc3cnc(NC(C)(C)CO)nc3)CC2)c2cc(Cl)ccc21` [Compound 40] belongs 6.30 to 7.30.

Take `CC(CO)(CO)Cn1cc(CN2CCC3(CC2)C(=O)Nc2ccc(Cl)cc23)nn1` [Compound 41, 5-chloro-1′-[[1-[3-hydroxy-2-(hydroxymethyl)-2-methyl-propyl]triazol-4-yl]methyl]spiro[indoline-3,4′-piperidine]-2-one]: the pIC50 is 6.30 to 7.30. To `CN1C(=O)C2(CCN(Cc3cn(CCO)nn3)CC2)c2cc(Cl)ccc21` [Compound 43] belongs not above 6.30; to `CN1C(=O)C2(CCN(Cc3cn(CC(C)(CO)CO)nn3)CC2)c2cc(Cl)ccc21` [Compound 44], not above 6.30; to `CS(=O)(=O)CCn1cc(CN2CCC3(CC2)C(=O)N(CCO)c2ccc(Cl)cc23)cn1` [Compound 45, 5-chloro-1-(2-hydroxyethyl)-1′-[[1-(2-methylsulfonylethyl)pyrazol-4-yl]methyl]spiro[indoline-3,4′-piperidine]-2-one], 6.30 to 7.30. Consider `O=C1N(CCO)c2ccc(Cl)cc2C12CCN(Cc1cn[nH]c1)CC2` [Compound 46], for which the pIC50 is 6.30 to 7.30. To `CCN1C(=O)C2(CCN(Cc3cnn(CCS(C)(=O)=O)c3)CC2)c2cc(Cl)ccc21` [Compound 48] belongs 6.30 to 7.30; to `CS(=O)(=O)CCn1cc(CN2CCC3(CC2)C(=O)N(C2COC2)c2ccc(Cl)cc23)cn1` [Compound 49], 6.30 to 7.30; to `CS(=O)(=O)CCn1cc(CN2CCC3(CC2)C(=O)N(CC(F)(F)F)c2ccc(Cl)cc23)cn1` [Compound 50], 6.30 to 7.30.

As to `COCCN1C(=O)C2(CCN(Cc3cnn(CCS(C)(=O)=O)c3)CC2)c2cc(Cl)ccc21` [Compound 51], the pIC50 is not above 6.30.

Turning to `CN1C(=O)C2(CCN(Cc3cnn(CC(C)(C)O)c3)CC2)c2cc(Cl)ccc21` [Compound 52, 5-chloro-1′-[[1-(2-hydroxy-2-methyl-propyl)pyrazol-4-yl]methyl]-1-methyl-spiro[indoline-3,4′-piperidine]-2-one], the pIC50 is not below 7.30. To `CN1C(=O)C2(CCN(Cc3cnn(CC(O)C(F)(F)F)c3)CC2)c2cc(Cl)ccc21` (stereo not shown) [Compound 53] belongs 6.30 to 7.30; to `CN1C(=O)C2(CCN(Cc3cnn(CC4(O)CCS(=O)(=O)CC4)c3)CC2)c2cc(Cl)ccc21` [Compound 54], 6.30 to 7.30. For `CN1C(=O)C2(CCN(Cc3cnn(CCO)c3)CC2)c2cc(Cl)ccc21` [Compound 55] the value was not above 6.30. For the compound `CN1C(=O)C2(CCN(C[C@H]3C[C@@H](NC(=O)c4cc(C5CC5)no4)C3)CC2)c2cc(Cl)ccc21` [Compound 60, N-[3-[(5-chloro-1-methyl-2-oxo-spiro[indoline-3,4′-piperidine]-1′-yl)methyl]cyclobutyl]-3-cyclopropyl-isoxazole-5-carboxamide], the pIC50 was not above 6.30. To `CN1C(=O)C2(CCN(Cc3cnn(C[C@H]4C[C@@H](NS(=O)(=O)C5CC5)C4)c3)CC2)c2cc(Cl)ccc21` [Compound 65] belongs not above 6.30; to `Cc1cc(C(=O)N[C@H]2C[C@H](Cn3cc(CN4CCC5(CC4)C(=O)N(C)c4ccc(Cl)cc45)cn3)C2)on1` [Compound 70], not above 6.30.

Take `CN1C(=O)C2(CCN(Cc3cnn(CCS(N)(=O)=O)c3)CC2)c2ccccc21` [Compound 72, 2-(4-((I-methyl-2-oxospiro[indoline-3,4′-piperidin]-1′-yl)methyl)-1H-pyrazol-1-yl)ethane-1-sulfonamide]: the pIC50 is not above 6.30. In the case of `CS(=O)(=O)CCn1cc(CN2CCC3(CC2)C(=O)N(CC(F)F)c2ccccc23)cn1` [Compound 73], the pIC50 was not above 6.30.

For `C[C@H]1C[C@@]2(CCN1Cc1cnn(CCO)c1)C(=O)Nc1ccc(Cl)cc12` [Compound 75], the pIC50 was 6.30 to 7.30.

For the compound `C[C@H]1C[C@@]2(CCN1Cc1cnn(CC(=O)N(C)C)c1)C(=O)Nc1ccc(Cl)cc12` [Compound 76], the pIC50 is not below 7.30.

On to `C[C@H]1C[C@@]2(CCN1Cc1cnn(CCS(C)(=O)=O)c1)C(=O)N(C)c1ccc(Cl)cc12` [Compound 80, (2′S,3R)-5-chloro-1,2′-dimethyl-1′-[[1-(2-methylsulfonylethyl)pyrazol-4-yl]methyl]spiro[indoline-3,4′-piperidine]-2-one trifluoracetic acid], for which the pIC50 is not below 7.30. In the case of `CN1C(=O)C2(CCN(Cc3cnn(CCS(C)(=O)=O)c3)CC2)c2cc(C(F)(F)F)ccc21` [Compound 83], the pIC50 was not above 6.30. To `CCc1ccc2c(c1)C1(CCN(Cc3cnn(CCS(C)(=O)=O)c3)CC1)C(=O)N2C` [Compound 84] belongs not above 6.30. To `CN1C(=O)C2(CCN(Cc3cnn(CCS(C)(=O)=O)c3)CC2)c2cc(OC(F)F)ccc21` [Compound 85] belongs not above 6.30; to `CS(=O)(=O)CCn1cc(CN2CCC3(CC2)C(=O)N(Cc2ccccc2)c2ccc(OC(F)F)cc23)cn1` [Compound 86], not above 6.30. To `CN1C(=O)C2(CCN(Cc3cnn(CCS(C)(=O)=O)c3)CC2)c2cc(OC(F)(F)F)ccc21` [Compound 87] belongs not above 6.30; to `C[C@H]1C[C@@]2(CCN1Cc1cnn(CCS(C)(=O)=O)c1)OCCc1ccc(Cl)cc12` [Compound 88, (1R,2′S)-7-chloro-2′-methyl-1′-[[1-(2-methylsulfonylethyl)pyrazol-4-yl]methyl]spiro[isochromane-1,4′-piperidine]], not below 7.30. As for `CC1COC2(CCN(Cc3cnn(C)c3)CC2)c2ccccc21` (stereo not shown) [Compound 89, 4-methyl-1′-[(1-methylpyrazol-4-yl)methyl]spiro[isochromane-1,4′-piperidine]], the pIC50 was not above 6.30.

Regarding `Cc1ccc2c(c1)[C@]1(CCN(Cc3cnn(C)c3)[C@@H](C)C1)OCC2` [Compound 91], the pIC50 is not below 7.30. Take `Cc1ccc2c(c1)C1(CCN(Cc3cnn(C)c3)C(C)C1)OCC2` (stereo not shown) [Compound 92]: the pIC50 was not below 7.30. To `Cc1ccc2c(c1)C1(CCN(Cc3cnn(C)c3)C(C)C1)OCC2` (stereo not shown) [Compound 93] belongs not below 7.30; to `Cc1ccc2c(c1)[C@]1(CCN(Cc3cnc(NC(C)(C)CO)nc3)[C@@H](C)C1)OCC2` [Compound 94], not below 7.30; to `Cc1ccc2c(c1)[C@@]1(CCN(Cc3cnc(NC(C)(C)CO)nc3)[C@@H](C)C1)OCC2` [Compound 95], not above 6.30. To `Cc1ccc2c(c1)[C@]1(CCN(Cc3cn[nH]c3)[C@@H](C)C1)OCC2` [Compound 96] belongs not below 7.30; to `Cc1ccc2c(c1)C1(CCN(Cc3cn[nH]c3)[C@@H](C)C1)OCC2` (stereo partly shown) [Compound 97], not above 6.30; to `Cc1ccc2c(c1)C1(CCN(Cc3cnn(CCO)c3)[C@@H](C)C1)OCC2` (stereo partly shown) [Compound 98], not below 7.30. With `Cc1ccc2c(c1)C1(CCN(Cc3cnn(CCO)c3)[C@@H](C)C1)OCC2` (stereo partly shown) [Compound 99], the pIC50 is not above 6.30.

On to `Cc1ccc2c(c1)[C@]1(CCN(Cc3cnn(CC(C)(CO)CO)c3)[C@@H](C)C1)OCC2` [Compound 100], for which the pIC50 was not below 7.30. To `Cc1ccc2c(c1)[C@@]1(CCN(Cc3cnn(CC(C)(CO)CO)c3)[C@@H](C)C1)OCC2` [Compound 101] belongs 6.30 to 7.30.
